Earlier results in publication PMC3470887, “Protegrin-1 Inhibits Dengue NS2B-NS3 Serine Protease and Viral Replication in MK2 Cells” (Journal of Biomedicine and Biotechnology, 2012).

Settings: mouse, iv; cited from earlier work

Question: For `CC(C)C[C@H](NC(=O)[C@H](CCCNC(=N)N)NC(=O)CNC(=O)CNC(=O)[C@@H](N)CCCNC(=N)N)C(=O)N[C@H]1CSSC[C@@H](C(=O)N[C@H](C(=O)NCC(=O)N[C@@H](CCCNC(=N)N)C(N)=O)C(C)C)NC(=O)[C@H](C(C)C)NC(=O)[C@@H]2CSSC[C@H](NC(=O)[C@H](Cc3ccc(O)cc3)NC1=O)C(=O)N[C@@H](CCCNC(=N)N)C(=O)N[C@@H](CCCNC(=N)N)C(=O)N[C@@H](CCCNC(=N)N)C(=O)N[C@@H](Cc1ccccc1)C(=O)N2` [PG-1], which “dose with low in vivo toxicity” value is on record?
Answer: Its value is “up to 8 mg/kg”.
